Converted amounts (≈) assume the structure as drawn.
system: NIH3T3; test: Minimum inhibitory concentration for the inhibition of transformation in ras- transformed cells(ras/ NIH3T3); assay type: functional; details: Mus musculus

Compound | MIC [µM]
O=C(CCCC/C=C/c1ccccc1NS(=O)(=O)c1ccccc1)NO | 4.3 (≈ 1.61 µg/mL)
O=C(/C=C/C=C/c1ccccc1NS(=O)(=O)c1ccccc1)NO | 1.6 (≈ 0.551 µg/mL)
COc1ccc(S(=O)(=O)Nc2cccc(C#C/C=C/C(=O)NO)c2)cc1 | 0.08 (≈ 0.0298 µg/mL)
O=C(/C=C/C=C/c1ccc(NS(=O)(=O)c2ccccc2)cc1)NO | 1.6 (≈ 0.551 µg/mL)
O=C(/C=C/C=C/c1cccc(NS(=O)(=O)c2ccccc2)c1)NO | 0.3 (≈ 0.103 µg/mL)
O=C(/C=C/C#Cc1cccc(NS(=O)(=O)c2ccc3ccccc3c2)c1)NO | 0.08 (≈ 0.0314 µg/mL)
O=C(/C=C/C#Cc1cccc(NS(=O)(=O)c2ccc(Br)cc2)c1)NO | 0.16 (≈ 0.0674 µg/mL)
O=C(/C=C/C#Cc1cccc(NS(=O)(=O)c2ccc(F)cc2)c1)NO | 0.08 (≈ 0.0288 µg/mL)
O=C(/C=C/C#Cc1cccc(NS(=O)(=O)c2ccc([N+](=O)[O-])cc2)c1)NO | 0.64 (≈ 0.248 µg/mL)
CN(c1ccccc1/C=C/C=C/C(=O)NO)S(=O)(=O)c1ccccc1 | 0.8 (≈ 0.287 µg/mL)
O=C(/C=C/C=C/c1cc2ccccc2cc1NS(=O)(=O)c1ccccc1)NO | 0.32 (≈ 0.126 µg/mL)
O=C(/C=C/C=C/c1cc2ccccc2n1S(=O)(=O)c1ccccc1)NO | 0.4 (≈ 0.147 µg/mL)
O=C(CCCC/C=C\c1ccccc1NS(=O)(=O)c1ccccc1)NO | 17 (≈ 6.37 µg/mL)
Cc1ccc(S(=O)(=O)Nc2cccc(C#C/C=C/C(=O)NO)c2)cc1 | 0.16 (≈ 0.057 µg/mL)
CN(c1cccc(/C=C/C=C/C(=O)NO)c1)S(=O)(=O)c1ccccc1 | 0.6 (≈ 0.215 µg/mL)

system: NIH3T3; test: Minimum inhibitory concentration for the inhibition of transformation in ras- transformed cells(ras/ NIH3T3); Not effective at the highest concentration tested (100 uM); assay type: functional, cell-based; details: Mus musculus

Compound | MIC
O=C(/C=C/C#CC#Cc1cccc(NS(=O)(=O)c2ccccc2)c1)NO | Not effective at the highest concentration tested (100 uM)
